Tests used:
Type in all cases: in vivo
weeds = experiment: Pre-emergence test (greenhouse), activity against weeds; conditions: in words
Procedure: Solvent: 5 parts by weight of acetone
Emulsifier: 1 part by weight of alkylaryl polyglycol ether
(§1) To produce a suitable preparation of the active compound, 1 part by weight of active compound is mixed with the stated amount of solvent, the stated amount of emulsifier is added and the concentrate is diluted with water to the desired concentration.
(§2) Seeds of the test plants are sown in normal soil. After about 24 hours, the soil is watered with the preparation of active compound. Advantageously, the amount of water per unit area is kept constant. The active compound concentration in the preparation is not important, only the active compound appliation rate per unit area matters.
(§3) After three weeks, the degree of damage to the plants is rated in % damage in comparison to the development of the untreated control.
(§4) 0%=no action (like untreated control)

Maize = experiment: Pre-emergence test/Greenhouse, Maize
Procedure: as §1, §2, §3, §4

Soya beans = experiment: Pre-emergence test/Greenhouse, Soya beans
Procedure: as §1, §2, §3, §4

Lolium = experiment: Pre-emergence test/Greenhouse, Lolium; conditions: after three weeks
Procedure: as §1, §2, §3, §4

Poa = experiment: Pre-emergence test/Greenhouse, Poa; conditions: after three weeks
Procedure: as §1, §2, §3, §4

Ambrosia = experiment: Pre-emergence test/Greenhouse, Ambrosia; conditions: after three weeks
Procedure: as §1, §2, §3, §4

Matricaria = experiment: Pre-emergence test/Greenhouse, Matricaria; conditions: after three weeks
Procedure: as §1, §2, §3, §4

Solanum = experiment: Pre-emergence test/Greenhouse, Solanum; conditions: after three weeks
Procedure: as §1, §2, §3, §4

[1] = pre-emergence, 60 g of ai./ha, after three weeks

Row | Compound | activity against weeds (weeds) | degree of damage to the plants (% damage vs untreated control), Maize (Maize; in vivo) [%] | degree of damage to the plants (% damage vs untreated control), Soya beans (Soya beans; in vivo) [%] | degree of damage to the plants (% damage vs untreated control), Lolium (Lolium; 60 g of ai./ha) [%] | degree of damage to the plants (% damage vs untreated control), Poa (Poa; 60 g of ai./ha) [%] | degree of damage to the plants (% damage vs untreated control), Ambrosia (Ambrosia; 60 g of ai./ha) [%] | degree of damage to the plants (% damage vs untreated control), Matricaria (Matricaria; 60 g of ai./ha) [%] | degree of damage to the plants (% damage vs untreated control), Solanum (Solanum; 60 g of ai./ha) [%] | degree of damage to the plants (% damage vs untreated control), Lolium (Lolium; 15 g of ai./ha) [%] | degree of damage to the plants (% damage vs untreated control), Poa (Poa; 15 g of ai./ha) [%] | degree of damage to the plants (% damage vs untreated control), Ambrosia (Ambrosia; 15 g of ai./ha) [%] | degree of damage to the plants (% damage vs untreated control), Matricaria (Matricaria; 15 g of ai./ha) [%] | degree of damage to the plants (% damage vs untreated control), Solanum (Solanum; 15 g of ai./ha) [%] | degree of damage to the plants (% damage vs untreated control), Maize (Maize; [1]) [%] | degree of damage to the plants (% damage vs untreated control), Soya beans (Soya beans; [1]) [%] | degree of damage to the plants (% damage vs untreated control), Lolium (Lolium; 125 g of ai./ha) [%] | degree of damage to the plants (% damage vs untreated control), Poa (Poa; 125 g of ai./ha) [%] | degree of damage to the plants (% damage vs untreated control), Ambrosia (Ambrosia; 125 g of ai./ha) [%] | degree of damage to the plants (% damage vs untreated control), Matricaria (Matricaria; 125 g of ai./ha) [%] | degree of damage to the plants (% damage vs untreated control), Solanum (Solanum; 125 g of ai./ha) [%]
1 | CCn1c(OC)nn(C(=O)NS(=O)(=O)c2c(C)csc2C(=O)OC)c1=O [Example 37] | very strong activity against weeds | 10 | 10 | 90 | 70 | 80 | 95 | 90 | – | – | – | – | – | – | – | – | – | – | – | –
2 | CCOC(=O)c1scc(C)c1S(=O)(=O)NC(=O)n1nc(OCC)n(CC)c1=O [Example 64] | very strong activity against weeds | 10 | 30 | 90 | 60 | 100 | 100 | 100 | – | – | – | – | – | – | – | – | – | – | – | –
3 | C=CCOc1nn(C(=O)NS(=O)(=O)c2c(C)cccc2C(=O)OC)c(=O)n1C1CC1 [Example 147] | very strong activity against weeds | 30 | 0 | – | – | – | – | – | 95 | 90 | 70 | 70 | 80 | – | – | – | – | – | – | –
4 | COC(=O)c1cccc(C)c1S(=O)(=O)NC(=O)n1nc(OCC(F)(F)F)n(C2CC2)c1=O [Example 142] | very strong activity against weeds | 20 | 10 | – | – | – | – | – | 95 | 80 | 80 | 80 | 80 | – | – | – | – | – | – | –
5 | CCOn1c(SCC)nn(C(=O)NS(=O)(=O)c2c(C)cccc2C(=O)OC)c1=O [Example 3, 4-ethoxy-5-ethylthio-2-(2-methyl-6-methoxy-carbonyl-phenylsulphonylaminocarbonyl)-2,4-dihydro-3H-1,2,4-triazol-3-one] | very strong activity against weeds | – | – | 90 | 70 | 80 | 95 | 80 | – | – | – | – | – | 10 | 20 | – | – | – | – | –
6 | CCCOC(=O)c1cccc(C)c1S(=O)(=O)NC(=O)n1nc(SCC)n(C)c1=O [Example 48] | very strong activity against weeds | 30 | 20 | – | – | – | – | – | – | – | – | – | – | – | – | 95 | 95 | 95 | 100 | 95
7 | CCn1c(OC)nn(C(=O)NS(=O)(=O)c2c(C)cccc2C(=O)OC(C)C)c1=O [Example 19] | very strong activity against weeds | 0 | 0 | 95 | 95 | 95 | 95 | 90 | – | – | – | – | – | – | – | – | – | – | – | –
8 | CCOn1c(SC)nn(C(=O)NS(=O)(=O)c2c(C)cccc2C(=O)OC)c1=O [Example 146] | very strong activity against weeds | 0 | 10 | 80 | 90 | 80 | 80 | 90 | – | – | – | – | – | – | – | – | – | – | – | –
9 | CCSc1nn(C(=O)NS(=O)(=O)c2c(C)cccc2C(=O)OC(C)C)c(=O)n1C [Example 42] | very strong activity against weeds | 10 | 10 | 95 | 95 | 95 | 95 | 95 | – | – | – | – | – | – | – | – | – | – | – | –
10 | CCCOC(=O)c1cccc(C)c1S(=O)(=O)NC(=O)n1nc(OCC)n(CC)c1=O [Example 45] | very strong activity against weeds | 10 | 20 | – | – | – | – | – | – | – | – | – | – | – | – | 90 | 95 | 95 | 90 | 95
11 | C=CCn1c(SCCF)nn(C(=O)NS(=O)(=O)c2c(C)cccc2C(=O)OC)c1=O [Example 153] | very strong activity against weeds | 0 | 30 | – | – | – | – | – | – | – | – | – | – | – | – | – | 95 | 95 | 70 | 95
